The text below walks through data of US11753407B2, “Compounds for treating spinal muscular atrophy” (PTC Therapeutics, Inc., priority 2012, dated 2023).

Test [1] relates to Smn protein in SMA patient fibroblast cells (GM03813). In words: Smn protein assay in cultured cells (SMN HTRF). The class given is cell-based, human. The settings on record: 48 hours; for Smn protein expression: SMA Type 1 patient fibroblast cells, SMN HTRF assay (FIG. 8); for EC1.5x for Smn protein expression / maximum fold (Fold) increase of Smn protein: SMA patient fibroblast cells; for EC1.5x for Smn protein expression: 7-point concentration curve, SMN HTRF, concentration producing 1.5 times Smn protein vs DMSO vehicle control; for maximum fold (Fold) increase of Smn protein: 7-point concentration data, fold relative to vehicle control. An outline of the steps:
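Fibroblasts, SMA patient; 5,000 cells/well; 7-pt curve, 3.16-fold serial dilution; 48 h, 37 °C, 5% CO2; RIPA lysis 1 h RT; anti-SMN d2 + kryptate overnight RT; HTRF 665/620 nm; fold vs DMSO; EC1.5×, max fold.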
A general note: TR-FRET usually uses a lanthanide donor and a delayed reading to cut background.

For test [2], the system named is neonatal SMA Δ7 homozygous knockout mice. The experiment in a line: Righting reflex in neonatal Δ7 SMA mice. To be noted: IP QD from PND 3, versus vehicle (FIG. 14). The class given is in vivo. The procedure: The functional change in righting reflex of neonatal SMA mice is used to determine whether treatment with a test compound improves righting reflex.
Protocol. SMA Δ7 homozygous knockout mice are dosed intraperitoneally (IP) with test compound or vehicle (100% DMSO) QD from PND 3 until the dose regimen is switched to an oral dose BID in 0.5% hydroxypropylmethyl cellulose (HPMC) with 0.1% Tween-80 at a dose 3.16-fold higher than the dose used for IP. The righting reflex time is measured as the time taken by a mouse to flip over onto its feet after being laid on its back. Righting reflex is measured five times for each mouse (allowing a maximal time of 30 sec for each try) with 5 minutes between each measurement. The righting reflex time for SMA Δ7 homozygous knockout mice treated with test compound or vehicle and age-matched heterozygous mice is measured on PND 10, 14 and 18 and plotted.

Turning to `COc1ccc(-c2cc(=O)n3cc(N4CCNCC4)ccc3n2)cc1OC` [Cpd 6, 2-(3,4-dimethoxyphenyl)-7-(piperazin-1-yl)-4H-pyrido[1,2-a]pyrimidin-4-one], in test [1], the Smn protein expression result is “dose dependent increase in Smn protein expression”; the “EC1.5x for Smn protein expression” value was “*** (an EC1.5× between >0.3 μM and ≤1 μM is indicated by three stars (***))”; the “maximum fold (Fold) increase of Smn protein” value is “**** (a fold increase between >1.5 and ≤1.65 is indicated by four stars (****))”. Also, the righting reflex result in test [2] is reported as “improved compared to vehicle treated mice”.

With `Cc1cn2nc(-c3cc(=O)n4cc(N5CCN(C)CC5)ccc4n3)cc2c(C)n1` [Cpd 170, 2-(4,6-dimethylpyrazolo[1,5-a]pyrazin-2-yl)-7-(4-methylpiperazin-1-yl)-4H-pyrido[1,2-a]pyrimidin-4-one], in test [1], the Smn protein expression entry was “dose dependent increase in Smn protein expression”, the “EC1.5x for Smn protein expression” value is given as “**** (an EC1.5x≤0.3 μM is indicated by four stars (****))” and the “maximum fold (Fold) increase of Smn protein” value is “***** (a fold increase >1.65 is indicated by five stars (*****))”. The righting reflex entry in test [2] is recorded as “improved compared to vehicle treated mice”.
